Results: patent US11319283B2, “Substituted cyclobutylbenzene compounds as indoleamine 2,3-dioxygenase (IDO) inhibitors” (MERCK SHARP & DOHME CORP., priority 2017, dated 2022)

Assays:
TDO = molecular target: T1, TDO (Homo sapiens, UniProt P48775); experiment: TDO Cellular Assay in Frozen SW48 Cells; type: cell-based; conditions: 300 uM L-tryptophan, about 48 hours, fluorescence readout
T1 construct: endogenous in cells; host or cells: SW48 cells (A2780 cells as control with minimal TDO activity)
Procedure: TDO Cellular Assay in Frozen SW48 Cells
SW48 cells were cultured in complete RPMI culture medium (90% RPMI, 10% heat-inactivated fetal bovine serum).
Compounds to be tested were serially diluted in ten 3-fold steps in DMSO starting from 10 mM DMSO stocks in Echo low volume plate(s). […] The cells were spun down at 350 g in a table top centrifuge for 5 minutes and suspended in same volume of RPMI assay medium. […] Sterile L-tryptophan (Sigma, Cat # T0254) was added to the cells with final concentration of 300 uM.
SW48 and A2780 cells were dispensed to the respective wells of 384-well assay plates containing the compounds. The plates were incubated for about 48 hours at a 37° C., 5% CO2 incubator. Afterwards, 12 μL of 0.5 M ethyl isonipecotate (Sigma Aldrich, Cat # E33505) in dimethyl sulfoxide were added into each well and the plates were sealed and incubated at 37° C. without CO2 overnight. The plates were centrifuged for 1 minute at 200×g. The resulting fluorescence was measured in a Spectramax plate reader (Molecular Devices) with a 400 nm excitation filter and a 510 nm emission filter.
The fluorescence intensity of each well was corrected for the background observed in wells with A2780 cells and was expressed as a fraction of the intensity observed in wells of SW48 cells and DMSO only. Potencies were calculated by linear least squares fit to the four parameter logistic IC50 equation.

IDO1 = IDO1 (Homo sapiens, UniProt P14902); experiment: IDO1 Cellular Assay in Hela Cells Stimulated with IFNγ; type: cell-based; design: endogenous in cells; host or cells: HeLa cells stimulated with IFNγ (100 ng/mL); conditions: Hela cells stimulated with IFNγ 100 ng/mL, 300 uM L-tryptophan, about 48 hours, fluorescence readout
Summary of the method: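 HeLa cells with 300 uM L-tryptophan, IFNγ-stimulated (unstimulated cells as max-effect control), exposed to compound (ten 3-fold dilutions) for about 48 h at 37 °C. IC50 by four-parameter logistic fit.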

Chain of IDO1 (P14902 whole entry): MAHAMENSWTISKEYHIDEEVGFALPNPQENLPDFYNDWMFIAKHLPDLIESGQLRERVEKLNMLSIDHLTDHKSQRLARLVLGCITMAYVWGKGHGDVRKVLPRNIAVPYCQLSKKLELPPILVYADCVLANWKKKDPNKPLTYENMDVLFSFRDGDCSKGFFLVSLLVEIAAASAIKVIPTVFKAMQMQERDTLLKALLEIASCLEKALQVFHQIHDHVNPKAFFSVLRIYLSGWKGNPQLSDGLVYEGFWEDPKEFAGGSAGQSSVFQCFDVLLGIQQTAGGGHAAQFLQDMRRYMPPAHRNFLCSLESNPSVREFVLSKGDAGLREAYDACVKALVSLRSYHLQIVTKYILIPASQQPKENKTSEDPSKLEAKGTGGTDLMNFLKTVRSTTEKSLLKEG
T1 sequence (P48775 whole entry): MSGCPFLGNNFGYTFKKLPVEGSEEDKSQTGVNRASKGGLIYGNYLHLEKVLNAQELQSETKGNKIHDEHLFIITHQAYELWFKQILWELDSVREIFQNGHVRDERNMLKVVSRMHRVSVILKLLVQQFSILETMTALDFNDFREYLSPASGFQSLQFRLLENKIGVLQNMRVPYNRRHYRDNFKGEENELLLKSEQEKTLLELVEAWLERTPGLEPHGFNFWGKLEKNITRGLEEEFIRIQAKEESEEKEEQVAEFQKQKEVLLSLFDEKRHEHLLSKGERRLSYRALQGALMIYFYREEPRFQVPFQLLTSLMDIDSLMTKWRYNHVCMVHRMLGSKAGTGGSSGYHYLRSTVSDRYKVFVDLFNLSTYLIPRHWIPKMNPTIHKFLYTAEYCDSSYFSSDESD

Structure (SMILES) | IC50 (TDO) [nM] | IC50 (IDO1) [nM]
CCCNC(=O)C1(c2ccc(NC(=O)c3cc(F)cc(Cl)c3)cc2)CCC1 [Example 79, 3-chloro-5-fluoro-N-{4-[1-(propylcarbamoyl)cyclobutyl]phenyl}benzamide] | ≥ 10000 | 11
CCCNC(=O)C1(c2ccc(NC(=O)c3cc(Cl)cc(Cl)c3)cc2)CCC1 [Example 80, 3,5-dichloro-N-{4-[1-(propylcarbamoyl)cyclobutyl]phenyl}benzamide] | ≥ 10000 | 12
CCCNC(=O)C1(c2ccc(NC(=O)c3ccc(Cl)c(Cl)c3)cc2)CCC1 [Example 81, 3,4-dichloro-N-{4-[1-(propylcarbamoyl)cyclobutyl]phenyl}benzamide] | ≥ 10000 | 13
O=C(Nc1ccc(C2(C(=O)NCCC(F)(F)F)CCC2)cc1F)c1cccc(Cl)c1 [Example 82, 3-Chloro-N-(2-fluoro-4-(1-((3,3,3-trifluoropropyl)carbamoyl)cyclobutyl)phenyl)benzamide] | ≥ 10000 | 117
O=C(Nc1ccc(C2(C(=O)NCCC(F)(F)F)CCC2)cc1CO)c1cccc(Cl)c1 [Example 83, 3-Chloro-N-(2-(hydroxymethyl)-4-(1-((3,3,3-trifluoropropyl)carbamoyl)cyclobutyl)phenyl)benzamide] | ≥ 10000 | 128
CC(C)(C)/N=C/c1cc(C2(C(=O)NCCC(F)(F)F)CCC2)ccc1NC(=O)c1cccc(Cl)c1 [Example 84, N-(2-[(E)-(tert-butylimino)melhyl]-4-{1-[(3,3,3-trifluoropropyl)carbamoyl]cyclobutyl}phenyl)-3-chlorobenzamide] | ≥ 10000 | 176
CCCNC(=O)C1(c2ccc(NC(=O)C3Cc4ccccc43)cc2)CCC1 (centres unmarked) [Example 87, N-{4-[1-(propylcarbamoyl)cyclobutyl]phenyl}bicyclo[4.2.0]octa-1,3,5-triene-7-carboxamide] | ≥ 10000 | 1050
